Where “and” joins values, the source holds several entries; their conditions need not be identical. Equal values may be shown once.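 Exposure lasted 48 hours, with cells grown in 96-well plates and compounds tested at five concentrations. Here, GI50 denotes the concentration required for 50% inhibition of growth. TGI denotes the concentration required for complete inhibition of growth.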
What was measured:
Assay in all cases: inhibition of tumour cell growth, NCI panel, 48 h
A498 renal = tested on: A498 renal
IGROV1 ovarian = tested on: IGROV1 ovarian
M14 melanoma = tested on: M14 melanoma
MOLT-4 leukemia = tested on: MOLT-4 leukemia
NCI-H23 lung = tested on: NCI-H23 lung
SK-MEL-2 melanoma = tested on: SK-MEL-2 melanoma
U251 CNS = tested on: U251 CNS
NCI-H522 lung = tested on: NCI-H522 lung
NCI/ADR-RES ovarian = tested on: NCI/ADR-RES ovarian
HS 578T breast = tested on: HS 578T breast

SMILES	TGI (A498 renal)	TGI (IGROV1 ovarian) [µM]	TGI (M14 melanoma) [µM]	TGI (MOLT-4 leukemia) [µM]	TGI (NCI-H23 lung) [µM]	TGI (SK-MEL-2 melanoma) [µM]	TGI (U251 CNS) [µM]	TGI (NCI-H522 lung)	TGI (NCI/ADR-RES ovarian) [µM]	GI50 (A498 renal) [µM]	GI50 (HS 578T breast) [nM]	TGI (HS 578T breast) [µM]	GI50 (IGROV1 ovarian) [µM]	GI50 (M14 melanoma) [nM]	GI50 (NCI-H23 lung) [nM]	GI50 (NCI-H522 lung)	GI50 (NCI/ADR-RES ovarian) [µM]	GI50 (SK-MEL-2 melanoma) [µM]	GI50 (U251 CNS) [nM]	GI50 (MOLT-4 leukemia) [nM]
Cc1cc(N(CCC#N)CCC#N)ccc1/C=C(\NC(=O)/C=C/c1ccccc1)C(=O)Nc1ccccc1Cl	> 100 µM	> 100	> 100	> 100	> 100	> 100	> 100	–	–	–	–	–	–	–	–	–	–	–	–	–
COc1cc2c(oc(=O)c3c4occc4cc(OC)c23)c2cccc(O)c12	> 100 µM	> 100	> 100	> 100	> 100	–	> 100	> 100 µM	–	–	–	–	–	–	–	–	–	–	–	–
COC(=O)C1=NC(=S)NC(c2ccccc2)C1c1nc2ccccc2o1 (configuration not stated)	> 50 µM	> 50	> 50	> 50	> 50	> 50	> 50	> 50 µM	–	–	–	–	–	–	–	–	–	–	–	–
COC(=O)C(=O)C(C(=O)C(=O)Nc1ccc([N+](=O)[O-])cc1)c1nc2ccccc2[nH]c1=O (configuration not stated)	> 100 µM	> 100	> 100	> 100	> 100	> 100	> 100	> 100 µM	–	–	–	–	–	–	–	–	–	–	–	–
CC1NOC(=O)C1N=Nc1cccc(Cl)c1 (configuration not stated)	52.5 µM	> 100	> 100	86.7	> 100	47.4	60.2	62.8 µM	–	–	–	–	–	–	–	–	–	–	–	–
COc1ccc(/C=C/C(=N\NC(=O)c2ccccc2)c2sc(Nc3ccc([N+](=O)[O-])cc3)nc2C)cc1OC	–	–	28.9	> 100	–	33	18.6	17.4 µM	–	–	–	–	–	–	–	–	–	–	–	–
Cc1c(Cl)ccc2c1NC(=O)C2(O)CC(=O)c1ccc(Cl)cc1 (configuration not stated)	> 64.1 µM	> 100	> 100	63.7	> 100	> 64.2	> 100	> 100 µM	–	–	–	–	–	–	–	–	–	–	–	–
CCOc1ccc(C2=NN(CC)C(=O)C(C3C(=O)N(c4ccccc4)N=C3C)C2)cc1 (configuration not stated)	> 100 µM	> 100	> 100	> 100	> 100	> 100	> 100	> 100 µM	–	–	–	–	–	–	–	–	–	–	–	–
Cc1cc(NCCCCCCCNc2cc(C)nc3cc(N)ccc23)c2ccc(N)cc2n1	> 100 µM	–	> 100	> 100	> 100	> 100	> 100	81.5 µM	–	–	–	–	–	–	–	–	–	–	–	–
COC(=O)Cc1cc(=O)n2c3ccccc3n(C)c2c1C#N	> 100 µM	> 100	> 100	> 100	> 100	> 100	> 100	–	–	–	–	–	–	–	–	–	–	–	–	–
C[N+](C)(C)CC1CCC(C[N+](C)(C)C)C1=NO (configuration not stated)	> 100 µM	> 100	> 100	> 100	> 100	> 100	> 100	> 100 µM	–	–	–	–	–	–	–	–	–	–	–	–
CCCC1C[C@H]2CCCCN2[C@H]2CCCN12 (some centres not stated)	> 100 µM	> 100	> 100	> 100	> 100	> 100	> 68	> 100 µM	–	–	–	–	–	–	–	–	–	–	–	–
N=C(N)c1ccc2oc3ccc(C(=N)N)cc3c(=O)c2c1	> 100 µM	> 100	> 100	> 100	> 100	> 100	> 100	> 100 µM	> 100	–	–	–	–	–	–	–	–	–	–	–
C=CCC(N[C@@H](CO)c1ccccc1)c1ccc2ccccc2n1 (some centres not stated)	> 100 µM	> 100	> 100	–	> 100	> 100	> 100	> 100 µM	> 100	93.2	> 100000	> 100	29.9	> 100000	> 100000	64.6 µM	> 100	> 100	> 100000	–
FC(F)(F)c1ccccc1C1SCc2nc3ccccc3n21 (configuration not stated)	94.4 µM	> 100	–	> 100	> 100	> 100	> 100	> 100 µM	–	–	–	–	–	–	–	–	–	–	–	–
COC(=O)c1c(C(=O)OC)c(-c2ccccc2)n(-c2ccccc2)c(=O)c1-c1ccccc1	> 100 µM	> 100	> 100	> 100	> 100	–	> 100	> 100 µM	–	–	–	–	–	–	–	–	–	–	–	–

SMILES	TGI (A498 renal)	TGI (IGROV1 ovarian) [µM]	TGI (M14 melanoma) [µM]	TGI (MOLT-4 leukemia) [µM]	TGI (NCI-H23 lung) [µM]	TGI (SK-MEL-2 melanoma) [µM]	TGI (U251 CNS) [µM]	TGI (NCI-H522 lung)	TGI (NCI/ADR-RES ovarian) [µM]	GI50 (A498 renal) [µM]	GI50 (HS 578T breast) [nM]	TGI (HS 578T breast) [µM]	GI50 (IGROV1 ovarian) [µM]	GI50 (M14 melanoma) [nM]	GI50 (NCI-H23 lung) [nM]	GI50 (NCI-H522 lung)	GI50 (NCI/ADR-RES ovarian) [µM]	GI50 (SK-MEL-2 melanoma) [µM]	GI50 (U251 CNS) [nM]	GI50 (MOLT-4 leukemia) [nM]
O=C(N/C(=C\c1ccc([N+](=O)[O-])cc1)c1nc2ccccc2s1)c1ccccc1	> 100 µM	> 100	81.8	48	61.7	80.5	> 100	–	–	–	–	–	–	–	–	–	–	–	–	–
CCCCCCCCCCCC/C=C\CC[C@@H](O)[C@H](O)CC[C@H](O)[C@@H]1CC[C@@H](CCCCCCCC2=C[C@H](C)OC2=O)O1	36.6 µM	28.1	46.8	4.88	29.9	33.4	> 100	25.9 µM	27.8	16.4	–	–	7.09	–	2190	–	7.19	12.6	13700	1720
COC(=O)CC1(O)C(=O)OCc2c1cc1n(c2=O)Cc2c-1nc1ccccc1c2OC (configuration not stated)	11.5 µM	> 74.3	32.2	0.165	1.68	74.6	2.11	16.3 µM	–	–	–	–	–	–	–	–	–	–	–	–
COC1C(OC(=O)c2ccc(C)[nH]2)C(O)C(Oc2ccc3c(O)c(NC(=O)c4ccc(O)c(CC=C(C)C)c4)c(=O)oc3c2Cl)OC1(C)C (configuration not stated)	33 µM	39.2	32.2	45.8	45.5	27	26.8	29.8 µM	–	–	–	61.9	–	–	–	–	–	–	–	–
C=CCNC(=S)NNC(=O)c1c(C)nc2sccn12	–	> 100	–	> 100	> 100	> 100	> 100	> 100 µM	–	–	–	–	–	–	–	–	–	–	–	–
CC(=O)CCC1(c2ccccc2)OC(=O)C(C#N)=C1c1ccccc1 (configuration not stated)	> 100 µM	> 100	> 100	> 100	> 100	> 100	> 100	4.53 µM	–	–	–	–	–	–	–	–	–	–	–	–
CC1[C@@]2(CCC(C)(C)O2)O[C@@H]2C=C3C4CCC5Cc6nc7c(nc6C[C@@]5(C)C4C[C@H](O)[C@@]3(C)[C@]12O)CC1CCC2C3=C[C@H]4O[C@@]5(O[C@@](C)(CO)C[C@@H]5O)C(C)[C@@]4(O)[C@]3(C)[C@@H](O)CC2[C@]1(C)C7 (some centres not stated)	0.14 µM and 0.0426 µM	0.59	0.122	–	–	–	–	0.418 µM and 0.0804 µM	2.05	0.00106	–	–	0.00831	–	3.08	0.0132 µM	–	0.00444	0.43	1.41
Cc1ccc(NCCNCC(C)(C)O)c2c(=O)c3ccc(Cl)cc3sc12	3.09 µM	2.96	3.26	–	3.03	3.28	3.06	3.59 µM	3.02	1.63	1590	3.84	1.35	1660	1530	1.82 µM	1.52	1.59	1670	–
CC(C)c1ccc(O)c(Cc2cc(C(C)C)cc(Cc3cc(C(C)C)ccc3O)c2O)c1	2.82 µM	6.54	3.23	4.68	3.15	3.06	3.17	2.92 µM	–	–	–	–	–	–	–	–	–	–	–	–
OC12CCC3(OC4CCCCO4)c4ccccc4C3C1c1ccccc12 (configuration not stated)	–	–	> 100	> 100	> 100	> 100	> 100	> 100 µM	–	–	–	–	–	–	–	–	–	–	–	–
Cc1cc(Cl)ccc1N=C1NC(=O)C(CC(=O)Nc2cccc(Cl)c2)S1 (configuration not stated)	92.4 µM	> 100	> 100	–	> 100	> 100	> 100	> 100 µM	–	–	–	–	–	–	–	–	–	–	–	–
Cc1ccc(C)c2c1C1CCCCC3(OCCCO3)C21O (configuration not stated)	> 100 µM	> 100	> 100	> 100	> 100	> 100	> 100	> 100 µM	–	–	–	–	–	–	–	–	–	–	–	–
COc1cccc(/C=C2\N=C(c3ccccc3)OC2=O)c1	–	> 100	> 100	–	> 100	> 100	> 100	42.5 µM	90.6	–	–	> 100	–	–	–	–	–	–	–	–
CC(=O)c1cc2c(N)c(C(=O)Nc3cccc4ccccc34)sc2nc1C	> 50 µM	> 50	3.21	> 50	> 50	> 50	> 50	> 50 µM	–	0.34	1820	> 50	2.92	745	2140	1.2 µM	–	4.22	1920	2190
COc1cc(C2CC(c3ccccc3)=NN2C=O)ccc1Oc1ccnc2cc(Cl)ccc12 (configuration not stated)	> 100 µM	> 100	> 100	–	> 100	38.6	> 100	> 100 µM	> 100	6.9	5600	> 100	35	5830	4820	5.28 µM	3.23	8.68	19800	–
N#C/C(=C\c1ccc(O)cc1)C(N)=O	> 100 µM	> 100	> 100	> 100	> 100	> 100	> 100	> 100 µM	> 100	–	–	–	–	–	–	97.5 µM and 44 µM	–	–	–	–

From PubChem BioAssay (NCI)
